Laboratory results taken from ChEMBL document CHEMBL4732189, “A facile synthesis of diaryl pyrroles led to the discovery of potent colchicine site antimitotic agents” (Eur J Med Chem, 2021).
Active and inactive are the calls of the source. The calls are words filed in the database; no cut-off is given here.

How the values were obtained:
[1] = species: Bos taurus; test: Displacement of [3H]colchicine from bovine brain tubulin at 5 uM by DEAE-cellulose filter method relative to control; format: tissue-based
[2] = system: EO771; test: Antitumour activity against mouse EO771 cells allografted in ip dosed C57BL/6 mouse assessed as reduction in tumor mass; format: functional, organism-based; conditions: dose lower 5.0 mg/kg, dose upper […]
[3] = system: PBL; test: Cytotoxicity against human PBL cells assessed reduction in cell viability after 72 hrs by MTT assay; format: cell-based
[4] = system: CCRF-CEM; test: Antiproliferative activity against human CCRF-CEM cells assessed as reduction in cell viability after 72 hrs by MTT assay; format: functional, cell-based
[5] = system: HeLa; test: Induction of apoptosis in human HeLa cells assessed as decrease in cleaved Bcl-2 protein expression at 50 nM after 24 to 48 hrs by Western blot analysis; format: functional, cell-based; conditions: time 24-48 hrs
[6] = system: A549; test: cells; conditions: Homo sapiens, A549, 72 h
Description: Antiproliferative activity against human A549 cells assessed as reduction in cell viability after 72 hrs by MTT assay

[7] = system: HL-60; test: Antiproliferative activity against human HL-60 cells assessed as reduction in cell viability after 72 hrs by MTT assay; format: functional, cell-based; conditions: HL-60, 72 h
[8] = system: HeLa; test: Induction of cell cycle arrest in human HeLa cells assessed as increase in accumulation at G2/M phase after 24 hrs by propidium iodide staining based flow cytometric analysis; format: functional; conditions: dose 1-100 nM
[9] = system: HT-29; test: Induction of cell cycle arrest in human HT-29 cells assessed as decrease in accumulation at S phase at 1 to 100 nM after 24 hrs by propidium iodide staining based flow cytometric analysis; format: functional; conditions: dose 1-100 nM
[10] = system: HT-29; test: Induction of cell cycle arrest in human HT-29 cells assessed as increase in accumulation at G2/M phase after 24 hrs by propidium iodide staining based flow cytometric analysis; format: functional; conditions: dose 1-100 nM
[11] = system: HeLa; test: Induction of apoptosis in human HeLa cells assessed as decrease in cleaved XIAP protein expression at 50 nM after 24 to 48 hrs by Western blot analysis; format: functional, cell-based; conditions: time 24-48 hrs
[12] = system: HeLa; test: cells; conditions: Homo sapiens, 72 h
Description: Antiproliferative activity against human HeLa cells assessed as reduction in cell viability after 72 hrs by MTT assay

[13] = system: HT-29; test: Induction of cell cycle arrest in human HT-29 cells assessed as decrease in accumulation at G1 phase at 1 to 100 nM after 24 hrs by propidium iodide staining based flow cytometric analysis; format: functional; conditions: dose 1-100 nM
[14] = system: HeLa; test: Induction of cell cycle arrest in human HeLa cells assessed as decrease in cdc25c protein expression at 50 nM after 24 to 48 hrs by Western blot analysis; format: functional, cell-based; conditions: time 24-48 hrs
[15] = system: HeLa; test: Induction of apoptosis in human HeLa cells assessed as increase in cleaved PARP level at 25 nM after 24 hrs by Western blot analysis; format: functional, cell-based
[16] = system: HeLa; test: Induction of ROS generation in human HeLa cells assessed as increase in DCF fluorescence at 50 nM after 24 to 48 hrs by H2-DCFDA staining based flow cytometric analysis; format: functional, cell-based; conditions: time 24-48 hrs
[17] = Toxicity in C57BL/6 mouse allografted with mouse EO771 cells assessed as reduction in body weight at 15 mg/kg, ip; format: organism-based; conditions: in vivo
[18] = Inhibition of bovine brain tubulin polymerization incubated for 15 mins followed by GTP addition and measured after 20 mins by spectrophotometric method; format: tissue-based, Bos taurus
[19] = system: SEM cells; test: Antiproliferative activity against human SEM cells assessed as reduction in cell viability after 72 hrs by MTT assay; format: functional, cell-based
[20] = system: HeLa; test: Induction of cell cycle arrest in human HeLa cells assessed as decrease in accumulation at S phase at 1 to 100 nM after 24 hrs by propidium iodide staining based flow cytometric analysis; format: functional; conditions: dose 1-100 nM
[21] = system: HeLa; test: Induction of apoptosis in human HeLa cells at 50 nM after 24 to 48 hrs by annexinV-FITC/propidium iodide staining based flow cytometric analysis; format: functional, cell-based; conditions: time 24-48 hrs
[22] = system: HeLa; test: Induction of cell cycle arrest in human HeLa cells assessed as decrease in accumulation at G1 phase at 1 to 100 nM after 24 hrs by propidium iodide staining based flow cytometric analysis; format: functional; conditions: dose 1-100 nM
[23] = system: EO771; test: Antitumour activity against mouse EO771 cells allografted in C57BL/6 mouse assessed as reduction in tumor volume at 5 mg/kg, ip; format: functional, organism-based
[24] = system: PBL; test: Cytotoxicity against PHA-induced human PBL cells assessed reduction in cell viability after 72 hrs by MTT assay; format: cell-based
[25] = system: HeLa; test: Induction of apoptosis in human HeLa cells assessed as decrease in cleaved Mcl-1 protein expression at 50 nM after 24 to 48 hrs by Western blot analysis; format: functional, cell-based; conditions: time 24-48 hrs
[26] = system: HeLa; test: Induction of cell cycle arrest in human HeLa cells assessed as increase in cyclin B1 protein expression at 50 nM after 24 to 48 hrs by Western blot analysis; format: functional, cell-based; conditions: time 24-48 hrs
[27] = target: Cyclin-dependent kinase 1 (Homo sapiens) (UniProt P06493); test: Inhibition of cdc2 phosphorylation at Y15 residues in human HeLa cells at 25 to 50 nM after 24 to 48 hrs by Western blot analysis; format: cell-based; conditions: dose 25-50 nM, time 24-48 hrs
Cyclin-dependent kinase 1 (Homo sapiens), sequence (P06493 whole entry, looked up): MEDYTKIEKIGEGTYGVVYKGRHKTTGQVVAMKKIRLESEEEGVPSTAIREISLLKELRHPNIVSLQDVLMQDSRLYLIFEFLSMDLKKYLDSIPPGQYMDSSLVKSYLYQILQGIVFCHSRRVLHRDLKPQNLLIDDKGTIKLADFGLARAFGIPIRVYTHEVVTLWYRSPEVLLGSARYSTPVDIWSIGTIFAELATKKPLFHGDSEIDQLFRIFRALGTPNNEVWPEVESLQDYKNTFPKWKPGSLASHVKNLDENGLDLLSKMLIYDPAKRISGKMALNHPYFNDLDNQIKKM

[28] = system: HT-29; test: cells; conditions: Homo sapiens, HT-29, 72 h
[29] = species: Bos taurus; test: Displacement of [3H]colchicine from bovine brain tubulin at 0.5 uM by DEAE-cellulose filter method relative to control; format: tissue-based

## CCOc1ccc(-c2c[nH]cc2-c2cc(OC)c(OC)c(OC)c2)cc1F
[1]
  inhibition: 93%
[2]
  Activity: Dose-dependent effect
[3]
  IC50: > 10000 nM
[4]
  IC50: 7.5 nM
[5]
  Activity: Active
[6]
  IC50: 28 nM
[7]
  IC50: 168 nM
[8]
  Activity: Dose-dependent effect
[9]
  Activity: Active
[10]
  Activity: Dose-dependent effect
[11]
  Activity: Active
[12]
  IC50: 26 nM
[13]
  Activity: Active
[14]
  Activity: Active
[15]
  Activity: Active
[16]
  Activity: Active
[17]
  Activity: Non-Toxic
[18]
  IC50: 660 nM
[19]
  IC50: 1.7 nM
[20]
  Activity: Active
[21]
  Activity: Active
[22]
  Activity: Active
[23]
  Activity: Dose-dependent effect
[24]
  IC50: > 10000 nM
[25]
  Activity: Active
[26]
  Activity: Active
[27]
  inhibition: Active
[28]
  IC50: 28 nM
[29]
  inhibition: 83%
